From patent US8153614B2, “Treatment of osteoarthritis” (Glycoscience Laboratories, Inc., priority 2006, dated 2012)

Tested on: C57BL/6 mice, which spontaneously develop osteoarthritis
Assay: Macroscopic examination (India ink) of knee joint cartilage in the spontaneous osteoarthritis mouse model
Format: in vivo
Conditions: oral HA4 100 mg/10 ml/kg once daily for 2 weeks
Procedure: In this example, HA4 was administered to C57BL/6 mice, which spontaneously develop osteoarthritis, to examine effects thereof.
20-week-old male C57BL/6 mice were purchased from Charles River Laboratories Japan, Inc., and animals which developed osteoarthritis were used. The animals were divided into the negative control (treated with physiological saline) group and the oral HA4 (100 mg/10 ml/kg) treated group.
In this example, 10 mg/ml HA4 was prepared. Specifically, HA4 was prepared by the method of Tawada et al. (Tawada A, Masa T, Oonuki Y, Watanabe A, Matsuzaki Y, Asari A. Large-scale preparation, purification, and characterization of hyaluronan oligosaccharides from 4-mers to 52-mers. Glycobiology. 2002; 12(7): 421-6.), and the concentration was adjusted with physiological saline. Furthermore, physiological saline was prepared as a control.
In this example, the test substance or physiological saline was orally given to mice which developed osteoarthritis using an oral sonde once daily for 2 weeks.
Osteoarthritis curing effects were determined macroscopically. […] For this evaluation method, refer to Chang D G, Iverson E P, Schinagl R M, Sonoda M, Amiel D, Coutts R D, Sah R L. Quantitation and localization of cartilage degeneration following the induction of osteoarthritis in the rabbit knee. […]

tetrasaccharide hyaluronan [HA4]
Therapeutic effects against osteoarthritis: therapeutic effects against osteoarthritis were confirmed | MEAN score (remaining India ink) (saline control mean 4.8): MEAN 1.4
